The subject of this assay is blood pressure of anesthetized Sprague-Dawley IGS male rats. Description: Hypotensive activity in anesthetized rats, invasive blood pressure measurement after intravenous administration. The format is in vivo, rat. As to conditions: for Hypotensive activity (dose/rat) 10 nmol / Hypotensive activity (dose/rat) 30 nmol / Hypotensive activity (dose/rat) 100 nmol: anesthetized rats, intravenous; for Hypotensive activity (dose/rat) 10 nmol: 10 nmol/rat; for Hypotensive activity (dose/rat) 30 nmol: 30 nmol/rat; for Hypotensive activity (dose/rat) 100 nmol: 100 nmol/rat; for dose dependence of hypotensive activity: anesthetized rats, 10, 30, 100 nmol/rat. On the procedure:
50 mg/kg pentobarbital sodium was intraperitoneally administered to 8- to 10-week-old Sprague-Dawley IGS male rats (Charles River Laboratories Japan, Inc.) for anesthesia. Thereafter, a tracheal cannula (PE 250), a femoral vein cannula (PE50), and a femoral artery cannula (PESO) were inserted into each rat. The femoral artery cannula was connected with a pressure transducer (PE23XL; manufactured by Nihon Kohden Corporation), and an apparatus formed by incorporating a blood pressure measurement unit (AP-641G; manufactured by Nihon Kohden Corporation) and an instantaneous heart rate measurement unit (AT-601G; manufactured by Nihon Kohden Corporation) into a multi-purpose preamplifier (RP-6004; manufactured by Nihon Kohden Corporation) was used to record the blood pressure and heart rate of each rat. The blood pressure was calibrated using a mercury manometer included in a stand-type electromanometer (MP-25S; manufactured by Nihon Kohden Corporation). The recording paper was adjusted, such that 10 mm or 20 mm on the recording paper corresponded to 100 mmHg.
Each peptide was dissolved in a concentration of 1 mM or 10 mM in a 0.1% acetic acid solution to prepare a peptide solution. Thereafter, depending on dose, it was diluted with a normal saline containing 0.1% bovine serum albumin (Fr.V). In the case of the dose of 10 nmol/rat, a 1 mM peptide solution was 10 times diluted, and 100 μl of the diluted solution was administered. In the case of the dose of 30 nmol/rat, a 1 mM peptide solution was 10 times diluted, and 300 μL, of the diluted solution was administered. In the case of the dose of 100 nmol/rat, a 10 mM peptide solution was 10 times diluted, and 100 μL of the diluted solution was administered. Each peptide was intravenously administered via the femoral vein cannula, and the systolic blood pressure, diastolic blood pressure, and heart rate were then measured.
Various HC021 derivative peptides were synthesized in accordance with Example 1, and such peptide was then administered to each rat at a dose of 10 nmol/rat, 30 nmol/rat, or 100 mol/rat by the method described in Example 2. Thereafter, the hypotensive activity of each derivative peptide was measured. […] The strength of such activity was determined using a median of activity in repeated experiments. In addition, in order to make a comparison among the activities of various derivative peptides, the strength of hypotensive activity was defined as follows.
Strength of Hypotensive Activity
Extremely strong activity (+++): A decrease in systolic blood pressure is 30 mmHg or more, and the time required for recovery is 5 minutes or more.
Strong activity (++): A decrease in systolic blood pressure is 20 mmHg or more and less than 30 mmHg, or the time required for recovery is less than 5 minutes.
Activity observed (+): A decrease in systolic blood pressure is less than 20 mmHg.
Activity not observed (−)
Various HC021 peptide sequence-substituted products were synthesized in accordance with Example 1, and their hypotensive activity was then measured according to the method of Example 3.

Where no end group is shown, it is not given here. [ ]: non-standard residue; d: D form. Cha = N[C@@H](CC1CCCCC1)C(=O)O

In the case of “LFFRRLQAYFK-amide (LFFRRLQAYFK-NH2) [Compound 19]”, the “dose dependence of hypotensive activity” value is listed as “enhanced their hypotensive activity in a dose-dependent manner”. Besides, where the note is “Table 2”, the “Hypotensive activity (dose/rat) 10 nmol” value is “+ (Activity observed (+): A decrease in systolic blood pressure is less than 20 mmHg.)”; the “Hypotensive activity (dose/rat) 30 nmol” value is “++ (Strong activity (++): A decrease in systolic blood pressure is 20 mmHg or more and less than 30 mmHg, or the time required for recovery is less than 5 minutes.)”; the “Hypotensive activity (dose/rat) 100 nmol” value was “+++ (Extremely strong activity (+++): A decrease in systolic blood pressure is 30 mmHg or more, and the time required for recovery is 5 minutes or more.)”. For the same substance, under “Table 3”, the “Hypotensive activity (dose/rat) 10 nmol” value was “+ (Activity observed (+): A decrease in systolic blood pressure is less than 20 mmHg.)”; the “Hypotensive activity (dose/rat) 30 nmol” value is “++ (Strong activity (++): A decrease in systolic blood pressure is 20 mmHg or more and less than 30 mmHg, or the time required for recovery is less than 5 minutes.)”; the “Hypotensive activity (dose/rat) 100 nmol” value is “+++ (Extremely strong activity (+++): A decrease in systolic blood pressure is 30 mmHg or more, and the time required for recovery is 5 minutes or more.)”.
Turning to “LFFRRLQAYFKGRGLDLGTFPNPFPTNENPR-amide [Compound 30]”, the “Hypotensive activity (dose/rat) 10 nmol” value was “+++ (Extremely strong activity (+++): A decrease in systolic blood pressure is 30 mmHg or more, and the time required for recovery is 5 minutes or more.)” (Table 2); “+++ (Extremely strong activity (+++): A decrease in systolic blood pressure is 30 mmHg or more, and the time required for recovery is 5 minutes or more.)” (Table 3).
“ATVRNEDKWKPLNNPRNRDLFFRRLQAYFK (not fully specified) [Compound 8]”: under “Table 2”, the “Hypotensive activity (dose/rat) 30 nmol” value is “−”; the “Hypotensive activity (dose/rat) 100 nmol” value was “+++ (Extremely strong activity (+++): A decrease in systolic blood pressure is 30 mmHg or more, and the time required for recovery is 5 minutes or more.)”.
As for “LFFRRLQAYF-amide (LFFRRLQAYF-NH2) [Compound 24]”, the “Hypotensive activity (dose/rat) 30 nmol” value (Table 2) is “++ (Strong activity (++): A decrease in systolic blood pressure is 20 mmHg or more and less than 30 mmHg, or the time required for recovery is less than 5 minutes.)”.
As for “LFFRRLQAYFKASASADYEEQKNSFHNYLK- amide [Compound 49]”, where the note is “Table 3”, the “Hypotensive activity (dose/rat) 10 nmol” value was “+++ (Extremely strong activity (+++): A decrease in systolic blood pressure is 30 mmHg or more, and the time required for recovery is 5 minutes or more.)”.
As to NRDLFFRRLQAYFKGR [Compound 13], under “Table 2”, the “Hypotensive activity (dose/rat) 30 nmol” value was “−”; the “Hypotensive activity (dose/rat) 100 nmol” value is “++ (Strong activity (++): A decrease in systolic blood pressure is 20 mmHg or more and less than 30 mmHg, or the time required for recovery is less than 5 minutes.)”.
Consider “NRELFFRRLQAYFK-amide (NRELFFRRLQAYFK-NH2) [Compound 41]”, for which, under “Table 3”, the “Hypotensive activity (dose/rat) 10 nmol” value is reported as “−”; the “Hypotensive activity (dose/rat) 30 nmol” value was “++ (Strong activity (++): A decrease in systolic blood pressure is 20 mmHg or more and less than 30 mmHg, or the time required for recovery is less than 5 minutes.)”.
Regarding “ATVRNEDKWKPLNNPRNRDLFFRRLQAYF-amide [Compound 10]”, under “Table 2”, the “Hypotensive activity (dose/rat) 10 nmol” value is given as “−”; the “Hypotensive activity (dose/rat) 30 nmol” value is “++ (Strong activity (++): A decrease in systolic blood pressure is 20 mmHg or more and less than 30 mmHg, or the time required for recovery is less than 5 minutes.)”.
As to ATVRNEDKWKPLNNPRNRDLFF [Compound 1], where the note is “Table 1”, the “Hypotensive activity (dose/rat) 10 nmol” value is recorded as “−”, the “Hypotensive activity (dose/rat) 30 nmol” value is “−” and the “Hypotensive activity (dose/rat) 100 nmol” value is “−”. In addition, where the note is “Table 2”, the “Hypotensive activity (dose/rat) 10 nmol” value is recorded as “−”, the “Hypotensive activity (dose/rat) 30 nmol” value was “−” and the “Hypotensive activity (dose/rat) 100 nmol” value was “−”.
Take “FRRLQAYFK-amide (FRRLQAYFK-NH2) [Compound 21]”: under “Table 2”, the “Hypotensive activity (dose/rat) 30 nmol” value is on record as “−” and the “Hypotensive activity (dose/rat) 100 nmol” value is “−”.
Regarding NRDLFFRRLQAYFKG [Compound 11], for the setting “Table 2”, the “Hypotensive activity (dose/rat) 10 nmol” value is “−”, the “Hypotensive activity (dose/rat) 30 nmol” value is given as “−” and the “Hypotensive activity (dose/rat) 100 nmol” value is “+ (Activity observed (+): A decrease in systolic blood pressure is less than 20 mmHg.)”.
In the case of “ATLRNEDTWKPLSNPRNRDLFFRRLQAYFK-amide [Compound 34]”, for the setting “Table 3”, the “Hypotensive activity (dose/rat) 10 nmol” value is on record as “−” and the “Hypotensive activity (dose/rat) 30 nmol” value is “+ (Activity observed (+): A decrease in systolic blood pressure is less than 20 mmHg.)”.
On to “NRDLFFRRLQAYFK (not fully specified (C-terminus)) [Compound 15]”, for which, for the setting “Table 2”, the “Hypotensive activity (dose/rat) 10 nmol” value is given as “−”, the “Hypotensive activity (dose/rat) 30 nmol” value is “−” and the “Hypotensive activity (dose/rat) 100 nmol” value is listed as “+ (Activity observed (+): A decrease in systolic blood pressure is less than 20 mmHg.)”.
As to “VQQRKESKKPPAKLQPRNRDLFFRRLQAYFK-amide (VQQRKESKKPPAKLQPRNRDLFFRRLQAYFK-NH2) [Compound 40]”, the “Hypotensive activity (dose/rat) 30 nmol” value (Table 3) is “++ (Strong activity (++): A decrease in systolic blood pressure is 20 mmHg or more and less than 30 mmHg, or the time required for recovery is less than 5 minutes.)”.
Consider “LFERRLQAYFKNGAEDESAEAFPLEF-amide (LFERRLQAYFKNGAEDESAEAFPLEF-NH2) [Compound 48]”, for which, for the setting “Table 3”, the “Hypotensive activity (dose/rat) 10 nmol” value is “+++ (Extremely strong activity (+++): A decrease in systolic blood pressure is 30 mmHg or more, and the time required for recovery is 5 minutes or more.)”.
As to “LFFRRLQA-amide (LFFRRLQA-NH2) [Compound 26]”, under “Table 2”, the “Hypotensive activity (dose/rat) 30 nmol” value is listed as “−” and the “Hypotensive activity (dose/rat) 100 nmol” value was “−”.
With “ATLGSEDTWKPLSNPRNRELFFRSLQAYF-amide [Compound 38]”, where the note is “Table 3”, the “Hypotensive activity (dose/rat) 10 nmol” value is listed as “−”; the “Hypotensive activity (dose/rat) 30 nmol” value is “−”; the “Hypotensive activity (dose/rat) 100 nmol” value was “++ (Strong activity (++): A decrease in systolic blood pressure is 20 mmHg or more and less than 30 mmHg, or the time required for recovery is less than 5 minutes.)”.
In the case of “RDLFFRRLQAYFK-amide (RDLFFRRLQAYFK-NH2) [Compound 16]”, the “dose dependence of hypotensive activity” value was “enhanced their hypotensive activity in a dose-dependent manner”. In addition, where the note is “Table 2”, the “Hypotensive activity (dose/rat) 10 nmol” value is reported as “−”; the “Hypotensive activity (dose/rat) 30 nmol” value is “++ (Strong activity (++): A decrease in systolic blood pressure is 20 mmHg or more and less than 30 mmHg, or the time required for recovery is less than 5 minutes.)”; the “Hypotensive activity (dose/rat) 100 nmol” value is “+++ (Extremely strong activity (+++): A decrease in systolic blood pressure is 30 mmHg or more, and the time required for recovery is 5 minutes or more.)”.
For “RRLQAYFK-amide (RRLQAYFK-NH2) [Compound 22]”, under “Table 2”, the “Hypotensive activity (dose/rat) 30 nmol” value is recorded as “−” and the “Hypotensive activity (dose/rat) 100 nmol” value is on record as “−”.
As for “RLQAYFK-amide (RLQAYFK-NH2) [Compound 23]”, under “Table 2”, the “Hypotensive activity (dose/rat) 30 nmol” value is on record as “−” and the “Hypotensive activity (dose/rat) 100 nmol” value is reported as “−”.
In the case of “acetyl-ATVRNEDKWKPLNNPRNRDLFFRRLQAYFK-amide [Compound 31]”, the “Hypotensive activity (dose/rat) 30 nmol” value (Table 2) was “+++ (Extremely strong activity (+++): A decrease in systolic blood pressure is 30 mmHg or more, and the time required for recovery is 5 minutes or more.)”.
“LFFRRLQA(Cha)FK-amide (LFFRRLQA[Cha]FK-NH2; N-terminus assumed; SMILES CC(C)C[C@H](NC(=O)[C@H](CCCNC(=N)N)NC(=O)[C@H](CCCNC(=N)N)NC(=O)[C@H](Cc1ccccc1)NC(=O)[C@H](Cc1ccccc1)NC(=O)[C@@H](N)CC(C)C)C(=O)N[C@@H](CCC(N)=O)C(=O)N[C@@H](C)C(=O)N[C@@H](CC1CCCCC1)C(=O)N[C@@H](Cc1ccccc1)C(=O)N[C@@H](CCCCN)C(N)=O) [Compound 45]”: where the note is “Table 3”, the “Hypotensive activity (dose/rat) 10 nmol” value was “+ (Activity observed (+): A decrease in systolic blood pressure is less than 20 mmHg.)”; the “Hypotensive activity (dose/rat) 30 nmol” value was “+++ (Extremely strong activity (+++): A decrease in systolic blood pressure is 30 mmHg or more, and the time required for recovery is 5 minutes or more.)”.
